For twelve molecules, IC50 results are on record in US11396502B2, “Substituted heterocyclic derivatives as PI3K inhibitors” (Incyte Corporation, priority 2018, dated 2022).

One assay addresses PI3Kγ (p110γ) (Homo sapiens (Human), UniProt P48736). Description: PI3K-γ scintillation proximity assay. Conditions: recombinant human PI3Kγ 13 nM, 20 μM PIP2, 2 μM ATP, 120 min, room temperature. It counts as biochemical. The source says:
Example B. PI3K-γ Scintillation Proximity Assay Materials: [γ-^33P]ATP (10 mCi/mL) and Wheat Germ Agglutinin (WGA) YSi SPA Scintillation Beads was purchased from Perkin Elmer (Waltham, Mass.). Lipid kinase substrate, D-myo-Phosphatidylinositol 4,5-bisphosphate (PtdIns(4,5)P2)D (+)-sn-1,2-di-O-octanoylglyceryl, 3-O-phospho linked (PIP2), CAS 204858-53-7, was purchased from Echelon Biosciences (Salt Lake City, Utah). PI3Kγ (p110γ) Recombinant Human Protein was purchased from Life technology (Grand Island, N.Y.). ATP, MgCl2, DTT, EDTA, MOPS and CHAPS were purchased from Sigma Aldrich (St. Louis, Mo.). The kinase reaction was conducted in polystyrene 384-well Greiner Bio-one white plate from Thermo Fisher Scientific in a final volume of 25 μL. Inhibitors were first diluted serially in DMSO and added to the plate wells before the addition of other reaction components. The final concentration of DMSO in the assay was 2%. The PI3Kγ assay was carried out at room temperature in 20 mM MOPS, pH 6.7, 10 mM MgCl2, 5 mM DTT and CHAPS 0.03%. Reactions were initiated by the addition of ATP, the final reaction mixture consisted of 20 μM PIP2, 2 μM ATP, 0.5 μCi [γ-^33P] ATP, 13 nM PI3Kγ. Reactions were incubated for 120 min and terminated by the addition of 40 μL SPA beads suspended in quench buffer: 163 mM potassium phosphate pH 7.8, 20% glycerol, 25 mM EDTA. The final concentration of SPA beads is 1.0 mg/mL. After the plate sealing, plates were shaken overnight at room temperature and centrifuged at 1500 rpm for 10 min, the radioactivity of the product was determined by scintillation counting on Topcount (Perkin-Elmer). IC50 determination was performed by fitting the curve of percent of the solvent control activity versus the log of the inhibitor concentration using the GraphPad Prism 6.0 software.
(In a scintillation proximity assay essentially only radioactivity close to the scintillant gives light.)

In assay [1] the test system is Phosphorylated Ribosomal Protein S6 (RPS6) in THP-1 cells. Description: THP-1 RPS6 ELISA assay. Conditions: Homo sapiens. In kind it is cell-based, Human. As for the experimental part:
Example A. THP-1 RPS6 ELISA Assay
To measure the Phosphorylated Ribosomal Protein S6 (RPS6) in cell lysates, THP-1 cells (Human Acute Monocytic Leukemia) are purchased from ATCC (Manassas, Va.) and maintained in RPMI with 10% FBS (Gibco/Life Technologies, Carlsbad, Calif.). For the assay, THP-1 cells are serum starved overnight in RPMI, then plated in RPMI (2×10^5 cells/well in 90 μL) into 96-well flat-bottom tissue culture treated plates (Corning, Corning, N.Y.), in the presence or absence of a concentration range of test compounds. Covered plates are incubated for 2 hours at 37° C., 5% CO2 then treated with or without 10 nM MCP-1 (MYBioSource, San Diego, Calif.) for 15 minutes at 37° C., 5% CO2. Plates are centrifuged at 1600 RPM and supernatants are removed. Cells are lysed in Lysis Buffer (Cell Signaling, Danvers, Mass.) with Protease Inhibitor (Calbiochem/EMD, Germany), PMSF (Sigma, St Louis Mo.), HALTS (Thermo Fisher, Rockford, Ill.) for 30 min on wet ice. Cell lysates are frozen at −80° C. before testing. The lysates are tested in the Human/Mouse/Rat Phospho-RPS6 ELISA (R&D Systems, Inc. Minn, Minn.). The plate is measured using a microplate reader (SpectraMax M5—Molecular Devices, LLC Sunnyvale, Calif.) set to 450 nm with a wavelength correction of 540. IC50 determination is performed by fitting the curve of inhibitor percent inhibition versus the log of the inhibitor concentration using the GraphPad Prism 5.0 software.

In another assay the target is PI3Kδ (p110δ/p85α) (Homo sapiens (Human), UniProt O00329). In words: PI3Kδ scintillation proximity assay. In kind it is biochemical. Conditions: recombinant human PI3Kδ 3.4 nM, 20 μM PIP2, 2 μM ATP, 120 min, room temperature. An excerpt:
Example C. PI3Kδ Scintillation Proximity Assay Materials: [γ-^33P]ATP (10 mCi/mL) and Wheat Germ Agglutinin (WGA) YSi SPA Scintillation Beads was purchased from Perkin Elmer (Waltham, Mass.). Lipid kinase substrate, D-myo-Phosphatidylinositol 4,5-bisphosphate (PtdIns(4,5)P2)D (+)-sn-1,2-di-O-octanoylglyceryl, 3-O-phospho linked (PIP2), CAS 204858-53-7, was purchased from Echelon Biosciences (Salt Lake City, Utah). PI3Kδ (p110δ/p85α) Recombinant Human Protein was purchased from Eurofins (St Charles, Mo.). ATP, MgCl2, DTT, EDTA, MOPS and CHAPS were purchased from Sigma Aldrich (St. Louis, Mo.). The kinase reaction was conducted in polystyrene 384-well Greiner Bio-one white plate from Thermo Fisher Scientific in a final volume of 25 μL. Inhibitors were first diluted serially in DMSO and added to the plate wells before the addition of other reaction components. The final concentration of DMSO in the assay was 2%. The PI3Kδ assay was carried out at room temperature in 20 mM MOPS, pH 6.7, 10 mM MgCl2, 5 mM DTT and CHAPS 0.03%. Reactions were initiated by the addition of ATP, the final reaction mixture consisted of 20 μM PIP2, 2 μM ATP, 0.5 μCi [γ-^33P] ATP, 3.4 nM PI3Kδ. Reactions were incubated for 120 min and terminated by the addition of 40 μL SPA beads suspended in quench buffer: 163 mM potassium phosphate pH 7.8, 20% glycerol, 25 mM EDTA. The final concentration of SPA beads is 1.0 mg/mL. After the plate sealing, plates were shaken overnight at room temperature and centrifuged at 1500 rpm for 10 min, the radioactivity of the product was determined by scintillation counting on Topcount (PerkinElmer). IC50 determination was performed by fitting the curve of percent of the solvent control activity versus the log of the inhibitor concentration using the GraphPad Prism 6.0 software.

Where [2] appears, read: THP-1, serum starved THP-1 cells, 2 hours compound, 10 nM MCP-1 for 15 minutes, Phospho-RPS6 ELISA, read-out: PI3Kγ_THP1_RPS6_ELISA IC50.

Each structure is given as a SMILES string. Structures can show the parent of a compound that is named as a salt. Where two headings read alike, the source gives them in different places. Some results are limits rather than exact numbers.

As a reminder, the IC50 is the point on the concentration scale where inhibition reaches its midpoint.

PI3Kγ (p110γ), sequence (P48736 whole entry): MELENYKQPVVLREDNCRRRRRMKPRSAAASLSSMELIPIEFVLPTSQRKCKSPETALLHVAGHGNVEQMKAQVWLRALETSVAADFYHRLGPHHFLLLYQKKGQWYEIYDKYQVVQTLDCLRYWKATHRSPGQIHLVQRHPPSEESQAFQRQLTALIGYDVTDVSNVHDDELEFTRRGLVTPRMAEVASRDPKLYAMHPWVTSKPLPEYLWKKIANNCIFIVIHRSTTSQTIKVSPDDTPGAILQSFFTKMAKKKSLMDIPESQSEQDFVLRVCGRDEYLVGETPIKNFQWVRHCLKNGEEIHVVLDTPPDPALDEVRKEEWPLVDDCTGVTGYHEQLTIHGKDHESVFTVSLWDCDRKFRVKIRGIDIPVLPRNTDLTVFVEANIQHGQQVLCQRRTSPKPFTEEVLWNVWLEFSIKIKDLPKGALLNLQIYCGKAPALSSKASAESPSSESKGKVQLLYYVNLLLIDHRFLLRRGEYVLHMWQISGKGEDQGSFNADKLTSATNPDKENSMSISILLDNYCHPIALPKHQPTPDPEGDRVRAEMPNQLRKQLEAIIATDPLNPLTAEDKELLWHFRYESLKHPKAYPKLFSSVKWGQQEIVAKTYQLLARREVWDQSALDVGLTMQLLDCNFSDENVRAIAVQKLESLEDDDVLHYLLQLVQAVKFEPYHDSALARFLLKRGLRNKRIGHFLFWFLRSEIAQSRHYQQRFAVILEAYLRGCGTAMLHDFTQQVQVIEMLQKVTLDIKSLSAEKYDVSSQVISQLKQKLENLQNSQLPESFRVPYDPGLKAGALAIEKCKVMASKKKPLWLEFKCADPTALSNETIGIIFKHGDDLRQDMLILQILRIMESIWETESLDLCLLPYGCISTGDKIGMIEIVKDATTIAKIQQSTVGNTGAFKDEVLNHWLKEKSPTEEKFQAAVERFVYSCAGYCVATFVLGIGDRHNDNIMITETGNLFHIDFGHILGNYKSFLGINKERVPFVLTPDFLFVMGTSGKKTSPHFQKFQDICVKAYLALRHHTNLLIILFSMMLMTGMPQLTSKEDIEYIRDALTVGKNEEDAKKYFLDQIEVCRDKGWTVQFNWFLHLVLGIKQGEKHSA
PI3Kδ (p110δ/p85α), sequence (O00329 whole entry): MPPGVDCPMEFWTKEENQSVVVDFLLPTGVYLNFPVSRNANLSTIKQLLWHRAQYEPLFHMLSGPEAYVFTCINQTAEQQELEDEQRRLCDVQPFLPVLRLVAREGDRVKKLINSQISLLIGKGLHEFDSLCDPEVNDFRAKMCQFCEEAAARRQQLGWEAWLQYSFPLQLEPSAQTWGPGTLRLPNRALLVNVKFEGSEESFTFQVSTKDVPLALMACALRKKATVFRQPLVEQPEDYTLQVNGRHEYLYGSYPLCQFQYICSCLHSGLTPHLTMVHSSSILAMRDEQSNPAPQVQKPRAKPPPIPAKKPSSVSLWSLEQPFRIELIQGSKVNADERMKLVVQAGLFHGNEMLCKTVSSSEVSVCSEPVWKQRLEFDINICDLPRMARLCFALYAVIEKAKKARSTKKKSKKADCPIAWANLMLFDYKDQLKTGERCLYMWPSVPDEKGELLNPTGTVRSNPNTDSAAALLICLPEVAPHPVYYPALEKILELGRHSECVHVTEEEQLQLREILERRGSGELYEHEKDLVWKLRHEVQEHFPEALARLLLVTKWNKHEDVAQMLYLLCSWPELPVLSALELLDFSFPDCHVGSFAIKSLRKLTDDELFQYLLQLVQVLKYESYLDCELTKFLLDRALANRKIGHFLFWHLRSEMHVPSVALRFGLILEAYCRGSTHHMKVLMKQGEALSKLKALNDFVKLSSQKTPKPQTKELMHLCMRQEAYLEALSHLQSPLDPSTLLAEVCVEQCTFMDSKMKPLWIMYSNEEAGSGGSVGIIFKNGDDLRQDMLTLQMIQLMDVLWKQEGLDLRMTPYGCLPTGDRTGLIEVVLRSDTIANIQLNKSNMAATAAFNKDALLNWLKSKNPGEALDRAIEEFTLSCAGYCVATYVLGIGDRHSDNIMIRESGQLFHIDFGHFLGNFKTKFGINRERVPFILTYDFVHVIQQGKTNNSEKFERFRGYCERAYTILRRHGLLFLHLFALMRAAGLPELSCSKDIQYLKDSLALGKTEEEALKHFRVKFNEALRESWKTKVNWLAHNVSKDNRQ
PI3Kδ (p110δ/p85α), sequence (P27986 whole entry partner): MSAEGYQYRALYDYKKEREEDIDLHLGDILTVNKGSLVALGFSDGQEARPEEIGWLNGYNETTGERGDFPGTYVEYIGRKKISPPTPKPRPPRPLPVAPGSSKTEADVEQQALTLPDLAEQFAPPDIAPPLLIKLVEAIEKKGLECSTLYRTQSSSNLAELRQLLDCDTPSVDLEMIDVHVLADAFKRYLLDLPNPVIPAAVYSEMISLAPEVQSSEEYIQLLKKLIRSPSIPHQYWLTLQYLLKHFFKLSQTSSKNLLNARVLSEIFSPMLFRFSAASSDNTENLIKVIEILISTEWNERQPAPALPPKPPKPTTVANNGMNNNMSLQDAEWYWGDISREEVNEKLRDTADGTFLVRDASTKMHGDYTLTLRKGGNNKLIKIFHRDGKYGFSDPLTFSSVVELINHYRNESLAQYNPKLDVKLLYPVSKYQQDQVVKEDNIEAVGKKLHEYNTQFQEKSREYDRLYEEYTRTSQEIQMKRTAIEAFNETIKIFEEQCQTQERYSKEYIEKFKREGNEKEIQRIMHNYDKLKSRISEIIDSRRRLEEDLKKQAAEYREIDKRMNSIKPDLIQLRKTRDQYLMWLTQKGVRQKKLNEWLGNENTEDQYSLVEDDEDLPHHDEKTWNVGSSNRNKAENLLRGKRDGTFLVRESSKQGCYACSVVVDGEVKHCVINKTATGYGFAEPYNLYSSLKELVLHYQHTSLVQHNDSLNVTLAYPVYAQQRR

For `Cc1[nH]c(-c2cc(-c3ccc4c(c3)CN([C@@H](C)C3CC3)C4=O)ccn2)nc1C(=O)NC(C)C` [Example 3, (S)-2-(4-(2-(1-Cyclopropylethyl)-1-oxoisoindolin-5-yl)pyridin-2-yl)-N-isopropyl-5-methyl-1H-imidazole-4-carboxamide Trifluoroacetate Salt], the results for the IC50 (at PI3Kγ (p110γ); in assay [1] (setting [2]); at PI3Kδ (p110δ/p85α)) were below 100 nM, above 1000 nM and 500 to 2000 nM, respectively.
For `Cc1[nH]c(-c2cc(-c3ccc4c(c3)CN([C@@H](C)C3CC3)C4=O)ccn2)nc1C(=O)NC1CCOCC1` [Example 4, (S)-2-(4-(2-(1-Cyclopropylethyl)-1-oxoisoindolin-5-yl)pyridin-2-yl)-5-methyl-N-(tetrahydro-2H-pyran-4-yl)-1H-imidazole-4-carboxamide trifluoroacetate salt], the IC50 on PI3Kγ (p110γ) was below 100 nM; in assay [1] (setting [2]), above 1000 nM; at PI3Kδ (p110δ/p85α) it was 500 to 2000 nM.
As to `Cc1[nH]c(-c2cc(-c3ccc4c(c3)CN([C@@H](C)C3CC3)C4=O)ccn2)nc1C(=O)N(C)C` [Example 5, (S)-2-(4-(2-(1-Cyclopropylethyl)-1-oxoisoindolin-5-yl)pyridin-2-yl)-N,N,5-trimethyl-1H-imidazole-4-carboxamide trifluoroacetate salt], the values for the IC50 (at PI3Kγ (p110γ); in assay [1] (setting [2]); on PI3Kδ (p110δ/p85α)) were below 100 nM, above 1000 nM and above 2000 nM, respectively.
Turning to `CNC(=O)c1nc(-c2cc(-c3ccc4c(c3)CN([C@@H](C)C3CC3)C4=O)ccn2)[nH]c1C` [Example 6, (S)-2-(4-(2-(1-Cyclopropylethyl)-1-oxoisoindolin-5-yl)pyridin-2-yl)-N,5-dimethyl-1H-imidazole-4-carboxamide trifluoroacetate salt], the IC50 on PI3Kγ (p110γ) was below 100 nM; in assay [1] (setting [2]) it was above 1000 nM; at PI3Kδ (p110δ/p85α) it was above 2000 nM.
The corresponding values for `CNC(=O)c1nc(-c2cc(-c3cc4c(c(S(C)(=O)=O)c3)C(=O)N([C@@H](C)C3CC3)C4)ccn2)[nH]c1C` [Example 7, (S)-2-(4-(2-(1-Cyclopropylethyl)-7-(methylsulfonyl)-1-oxoisoindolin-5-yl)pyridin-2-yl)-N,4-dimethyl-1H-imidazole-5-carboxamide, trifluoroacetate salt] are below 100 nM, 100 to 500 nM and 500 to 2000 nM.
Consider `Cc1[nH]c(-c2cc(-c3cc4c(c(S(C)(=O)=O)c3)C(=O)N([C@@H](C)C3CC3)C4)ccn2)nc1C(=O)NC(C)C` [Example 7a, (S)-2-(4-(2-(1-Cyclopropylethyl)-7-(methylsulfonyl)-1-oxoisoindolin-5-yl)pyridin-2-yl)-N-isopropyl-4-methyl-1H-imidazole-5-carboxamide, trifluoroacetate salt], for which the IC50 was below 100 nM on PI3Kγ (p110γ); below 100 nM in assay [1] (THP-1, read-out: PI3Kγ_THP1_RPS6_ELISA IC50 (nM)); 100 to 500 nM on PI3Kδ (p110δ/p85α).
On to `Cc1[nH]c(-c2cc(-c3cc4c(c(S(C)(=O)=O)c3)C(=O)N([C@@H](C)C3CC3)C4)ccn2)nc1C(=O)NC1CCOCC1` [Example 7b, (S)-2-(4-(2-(1-Cyclopropylethyl)-7-(methylsulfonyl)-1-oxoisoindolin-5-yl)pyridin-2-yl)-4-methyl-N-(tetrahydro-2H-pyran-4-yl)-1H-imidazole-5-carboxamide, trifluoroacetate salt], for which the IC50 at PI3Kγ (p110γ) is below 100 nM; in assay [1] (setting [2]), 500 to 1000 nM; on PI3Kδ (p110δ/p85α), 100 to 500 nM.
As for `Cc1[nH]c(-c2cc(-c3cc4c(c(S(C)(=O)=O)c3)C(=O)N([C@@H](C)C3CC3)C4)ccn2)nc1C(=O)NC12CC(C1)C2` [Example 7c, (S)-N-(Bicyclo[1.1.1]pentan-1-yl)-2-(4-(2-(1-cyclopropylethyl)-7-(methylsulfonyl)-1-oxoisoindolin-5-yl)pyridin-2-yl)-4-methyl-1H-imidazole-5-carboxamide, trifluoroacetate salt], the IC50 is below 100 nM at PI3Kγ (p110γ), above 1000 nM in assay [1] (setting [2]) and 100 to 500 nM on PI3Kδ (p110δ/p85α).
The corresponding values for `Cc1[nH]c(-c2cc(-c3cc4c(c(S(C)(=O)=O)c3)C(=O)N([C@@H](C)C3CC3)C4)ccn2)nc1C(=O)N1CC(F)(F)C1` [Example 7d, (S)-2-(1-Cyclopropylethyl)-5-(2-(5-(3,3-difluoroazetidine-1-carbonyl)-4-methyl-1H-imidazol-2-yl)pyridin-4-yl)-7-(methylsulfonyl)isoindolin-1-one, trifluoroacetate salt] are below 100 nM, 100 to 500 nM and 100 to 500 nM.
For `Cc1[nH]c(-c2cc(-c3cc4c(c(S(C)(=O)=O)c3)C(=O)N([C@@H](C)C3CC3)C4)ccn2)nc1C(=O)N1CC(O)C1` [Example 7e, (S)-2-(1-Cyclopropylethyl)-5-(2-(5-(3-hydroxyazetidine-1-carbonyl)-4-methyl-1H-imidazol-2-yl)pyridin-4-yl)-7-(methylsulfonyl)isoindolin-1-one, trifluoroacetate salt] the same measures were below 100 nM, above 1000 nM and 100 to 500 nM.
For `Cc1[nH]c(-c2cc(-c3cc4c(c(S(C)(=O)=O)c3)C(=O)N([C@@H](C)C3CC3)C4)ccn2)nc1C(=O)NC12CCC(C#N)(C1)C2` [Example 7h, (S)-N-(4-Cyanobicyclo[2.1.1]hexan-1-yl)-2-(4-(2-(1-cyclopropylethyl)-7-(methylsulfonyl)-1-oxoisoindolin-5-yl)pyridin-2-yl)-4-methyl-1H-imidazole-5-carboxamide, trifluoroacetate salt], the IC50 is below 100 nM at PI3Kγ (p110γ), 100 to 500 nM in assay [1] (setting [2]) and below 100 nM at PI3Kδ (p110δ/p85α).
As for `Cc1[nH]c(-c2cc(-c3cc4c(c(S(C)(=O)=O)c3)C(=O)N([C@@H](C)C3CC3)C4)ccn2)nc1C(=O)NC1CC2(COC2)C1` [Example 7i, (S)-2-(4-(2-(1-Cyclopropylethyl)-7-(methylsulfonyl)-1-oxoisoindolin-5-yl)pyridin-2-yl)-4-methyl-N-(2-oxaspiro[3.3]heptan-6-yl)-1H-imidazole-5-carboxamide, trifluoroacetate salt], the IC50 is below 100 nM at PI3Kγ (p110γ), 100 to 500 nM in assay [1] (setting [2]) and below 100 nM on PI3Kδ (p110δ/p85α).
